Patent US6051712A, “Piperidine derivatives having renin inhibiting activity” (Hoffmann-La Roche Inc., priority 1995, dated 2000)
Structures can show the parent of a compound that is named as a salt.

target: T1, human renin (Homo sapiens, UniProt P00797); assay: In vitro test with pure human renin (angiotensin I production from human tetradecapeptide renin substrate, measured by RIA); assay type: biochemical; settings: not given
T1 sequence (P00797 67-406): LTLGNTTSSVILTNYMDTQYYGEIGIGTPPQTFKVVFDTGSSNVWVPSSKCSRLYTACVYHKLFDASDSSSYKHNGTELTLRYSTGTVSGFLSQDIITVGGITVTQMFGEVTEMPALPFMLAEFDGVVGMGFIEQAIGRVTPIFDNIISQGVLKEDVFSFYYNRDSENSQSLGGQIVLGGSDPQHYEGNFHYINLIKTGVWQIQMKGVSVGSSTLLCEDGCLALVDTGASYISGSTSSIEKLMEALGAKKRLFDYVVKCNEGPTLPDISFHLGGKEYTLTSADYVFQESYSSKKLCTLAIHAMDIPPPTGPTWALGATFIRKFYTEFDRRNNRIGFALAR
Procedure: In vitro test with pure human renin
The test is carried out in Eppendorf test tubes. The incubation mixture consists of (1) 100 μl of human renin in buffer A (0.1M sodium phosphate solution, pH 7.4, containing 0.1% bovine serum albumin, 0.1% sodium azide and 1 mM ethylenediaminetetraacetic acid), sufficient for a renin activity of 2-3 ng of angiotensin l/ml/hr.; (2) 145 μl of buffer A: (3) 30 μl of 10 mM human tetradecapeptide renin substrate (hTD) in 10 mM hydrochloric acid: (4) […] of dimethyl sulphoxide with or without inhibitor and (5) 10 μl of a 0.03 molar solution of hydroxyquinoline sulphate in water.
The samples are incubated for three hours at 37° C. and, respectively, 4° C. in triplicate. 2×100 μl samples per test tube are used in order to measure the production of angiotensin I via RIA (standard radioimmunoassay; clinical assay solid phase kit). […] The production of angiotensin I is determined by the difference between the test at 37° C, and that at 4° C.
The following controls are carried out:
(a) Incubation of hTD samples without renin and without inhibitor at 37° C. and 4° C. The difference between these two values gives the base value of the angiotensin I production.
(b) Incubation of hTD samples with renin, but without inhibitor at 37° C. and 4° C. The difference between these values gives the maximum value of the angiotensin I production.
In each sample the base value of the angiotensin I production is subtracted from the angiotensin I production which is determined. The difference between the maximum value and the base value gives the value of the maximum substrate hydrolysis (=100%) by renin.
The IC50 values are determined from a linear regression curve from a logit-log plot.

IC50 | SMILES
41 nM | c1ccc(-c2noc(COc3ccc([C@H]4CCNC[C@@H]4OCc4ccc5ccccc5c4)cc3)n2)cc1 (racemic) [E, (3RS,4RS)-3-(naphthalen-2-ylmethoxy)-4-[4-(3-phenyl-[1,2,4]oxadiazol-5-ylmethoxy)-phenyl]-piperidine trifluoroacetate]
0.1 nM | COc1ccccc1COCCCOc1ccc([C@H]2CCNC[C@@H]2OCc2cc(OC)c3ccccc3c2OC)cc1 (relative stereo) [UU]
8 nM | c1ccc(COCCCOc2ccc([C@H]3CCNC[C@@H]3OCc3ccc4ccccc4c3)cc2)cc1 (racemic) [M, (3RS,4RS)-4-[4-(3-benzyloxy-propoxy)-phenyl]-3-(naphthalen-2-ylmethoxy)-piperidine]

SMILES | IC50
Fc1ccc([C@H]2C[C@@H]3CC[C@@H](N3)[C@@H]2OCc2cc(OCc3ccccc3)c3ccccc3c2)cc1 (racemic) [L, (1RS,2RS,3RS,5SR)-2-(4-benzyloxy-naphthalen-2-ylmethoxy)-3-(4-fluoro-phenyl)-8-aza-bicyclo[3.2.1]octane] | 3080 nM

same assay, conditions: pure human renin, pH 7.4, three hours at 37° C. (less 4° C.), human tetradecapeptide substrate, angiotensin I by RIA; read-out: IC50 values (concentration of the inhibitor at which the enzymatic activity is inhibited by 50%)

SMILES | IC50
O=C1NCCN1C[C@@H]1CNC[C@H](OCc2ccc3ccccc3c2)[C@H]1c1ccc(OCCCOCc2ccccc2)cc1 (relative stereo) [VV] | 2 nM
OCCOCc1ccc2ccc(CO[C@H]3CNCC[C@@H]3c3ccc(OCCCOCc4ccccc4)cc3)cc2c1 (racemic) [PP, 2-(7-{(3RS,4RS)-4-[4-(3-benzyloxy-propoxy)-phenyl]-piperidin-3-yloxymethyl}-naphthalen-2-ylmethoxy)-ethanol] | 2 nM
O=C(Cc1ccc2ccccc2c1)[C@H]1CNC[C@@H](COCCN2CCOCC2)[C@@H]1c1ccc(OCCCOCc2ccccc2)cc1 (racemic) [KK, 1-[(3RS,4SR,5SR)-4-[4-(3-benzyloxy-propoxy)-phenyl]-5-(2-morpholin-4-yl-ethoxymethyl)-piperidin-3-yl]-2-naphthalen-2-yl-ethanone] | 12 nM
CCN(CC)C[C@@H]1CNC[C@H](OCc2ccc3ccccc3c2)[C@H]1c1ccc(OCCCOCc2ccccc2)cc1 (relative stereo) [JJ] | 2 nM
COc1ccccc1OCCCOc1ccc([C@H]2CCNC[C@@H]2OCc2cc(OC)c3ccccc3c2OC)cc1 (relative stereo) [LL] | 1 nM
CN(C)CCN(C)C[C@@H]1CNC[C@H](OCc2ccc3ccccc3c2)[C@H]1c1ccc(OCCCOCc2ccccc2)cc1 (relative stereo) [II] | 2 nM
O=C(OC(Cc1ccc2ccccc2c1)[C@H]1CNCC[C@@H]1c1ccc(F)cc1)c1ccccc1 (stereo partly drawn) [K, (SR)- or (RS)-1-[(3RS,4SR)-4-(4-fluoro-phenyl)-piperidin-3-yl]-2-naphthalen-2-yl-ethyl benzoate hydrochloride (1:1)] | 2600 nM
OC[C@@H]1CNC[C@H](OCc2ccc3ccccc3c2)[C@H]1c1ccc(OCCCOCc2ccccc2)cc1 (relative stereo) [HH, (3SR,4RS,5RS)[4[4(3-Benzyloxy-propoxy)-phenyl5-(naphthalen-2-ylmethoxy)-pperidin-3-ylmethanol hydrochloride] | 6 nM
Fc1ccc([C@@H]2CCNC[C@H]2OCc2cc(OCc3ccccc3)c3ccccc3c2)cc1 [SS, (3S,4S)3-(4-Benzyloxy-naphthalen-2-ylmethoxy)-4-(4-fluoro-phenyl)-piperidne] | 132000 nM
CCC[C@@H]1CNC[C@H](OCc2cc(OCc3ccccc3)c3ccccc3c2)[C@H]1c1ccc(F)cc1 (racemic) [Compound I, (3RS,4RS,5SR)-3-(4-benzyloxy-naphthalen-2-ylmethoxy)-4-(4-fluoro-phenyl)-5-propyl-piperidine] | 317 nM
O=C(OCCOc1ccc([C@H]2CCNC[C@@H]2OCc2ccc3ccccc3c2)cc1)c1ccccc1Cl (relative stereo) [B, (3RS,4RS)-2-[4-(3-napthalen-2-ylmethoxy-piperidin-4-yl)-phenoxy]-ethyl 2-chloro-benzoate hydrochloride] | 26 nM
c1ccc(COCCCOc2ccc([C@H]3[C@H](Cn4cncn4)CNC[C@@H]3OCc3ccc4ccccc4c3)cc2)cc1 (relative stereo) [NN, (3RS,4RS,5SR)4-[4(3-Benzyloxy-propoxy)-phenyl3-(naphthalen-2-ylmethoxy)-5[1,2,4]triazol1-ylmethyl-piperidine hydrochloride] | 1 nM
COc1cc(CO[C@H]2CNCC[C@@H]2c2ccc(OCCCC3CCCCC3)nc2)c(OC)c2ccccc12 (relative stereo) [GG, (3'RS,4'RS)6-(3-Cyclohexyl-propoxy)-3(1,4-dimethoxy-naphthalen-2-ylmethox)-1',2',3',4',5',6hexahydro-[3,4']bipyridine] | 1 nM

Other lines, results leading:

IC50 | SMILES
2 nM | OCCCCO[C@@H]1CNC[C@H](OCc2ccc3ccccc3c2)[C@H]1c1ccc(OCCCOCc2ccccc2)cc1 (racemic) [V, 4-[(3RS,4SR,5SR)-4-[4-(3-benzyloxy-propoxy)-phenyl]-3-(naphthalen-2-ylmethoxy)-piperidin-5-yloxy]-butan-1-ol]
33 nM | c1ccc(SCCCc2ccc([C@H]3CCNC[C@@H]3OCc3ccc4ccccc4c3)cc2)cc1 (racemic) [G, (3RS,4RS)-3-(naphthalen-2-ylmethoxy)-4-[4-(3-phenylsulphanyl-propyl)-phenyl]-piperidine]
12 nM | c1ccc(COCCCOc2ccc([C@H]3CCNC[C@@H]3OCc3ccc4ccc(OCCN5CCOCC5)cc4c3)cc2)cc1 (racemic) [N, 4-[2-[7-[(3RS,4RS)-4-[4-(3-benzyloxy-propoxy)-phenyl]-piperidin-3-yloxymethyl]-naphthalen-2-yloxy]-ethyl]-morpholine hydrochloride (1:2)]
0.5 nM | COc1cc(CO[C@H]2CNC[C@@H](OCc3cc(OC)c(OC)c(OC)c3)[C@@H]2c2ccc(OCCCOCc3ccccc3)cc2)cc(OC)c1OC [MM, (3R,4s,5S)-4-[4-(3-benzyloxy-propoxy)-phenyl]-3,5-bis-(3,4,5-trimethoxy-benzyloxy)-piperidine]
1 nM | CN1CCN(CCCNC(=O)OC[C@@H]2CNC[C@H](OCc3ccc4ccccc4c3)[C@H]2c2ccc(OCCCOCc3ccccc3)cc2)CC1 (relative stereo) [DD]
6 nM | COc1ccccc1COCCCOc1ccc([C@H]2CCNC[C@@H]2OCc2ccc3cccnc3c2)cc1 (racemic) [OO, (3RS,4RS)-4-[4-[3-(2-methoxy-benzyloxy)-propoxy]-phenyl]-3-(quinolin-7-ylmethoxy)-piperidine]
2 nM | COC[C@@H]1CNC[C@H](OCc2ccc3ccccc3c2)[C@H]1c1ccc(OCCCOCc2ccccc2)cc1 (relative stereo) [CC]
73 nM | Oc1cc(CO[C@H]2CNCC[C@@H]2c2ccc(CCSc3nc4ccccc4s3)cc2)cc2ccccc12 (racemic) [H, (3RS,4RS)-3-[4-[4-[2-(benzothiazol-2-ylsulphanyl)-ethyl]-phenyl]-piperidin-3-yloxymethyl]-naphthalen-1-ol]
5 nM | CN1CCN(CCOc2ccc3ccc(CO[C@H]4CNCC[C@@H]4c4ccc(OCCCOCc5ccccc5)cc4)cc3c2)CC1 (racemic) [Q, 1-[2-[7-[(3RS,4RS)-4-[4-(3-benzyloxy-propoxy)-phenyl]-piperidin-3-yloxymethyl]-naphthalen-2-yloxy]-ethyl]-4-methyl-piperazine hydrochloride (1:3)]
3 nM | CN1CCN(CCO[C@@H]2CNC[C@H](OCc3ccc4ccccc4c3)[C@H]2c2ccc(OCCCOCc3ccccc3)cc2)CC1 (racemic) [X, 1-{2-[(3RS,4RS,5SR)-4-[4-(3-benzyloxy-propoxy)-phenyl]-3-(naphthalen-2-ylmethoxy)-piperidin-5-yloxy]-ethyl}-4-methyl-piperazine]
0.8 nM | COc1ccccc1COCCCOc1ccc([C@H]2CCNC[C@@H]2OCc2ccc3ccncc3c2)cc1 (racemic) [XX, (3RS,4RS)-3-(isoquinolin-7-ylmethoxy)-4-[4-[3-(2-methoxy-benzyloxy)-propoxy]-phenyl]-piperidine]
70 nM | COc1ccccc1COc1cc(CO[C@H]2CNCC[C@@H]2c2ccc(OCCOC(=O)c3ccccc3)cc2)cc2ccccc12 (racemic) [C, (3RS,4RS)-2-[4-[3-[4-(2-methoxy-benzyloxy)-naphthalen-2-ylmethoxy]-piperidin-4-yl]-phenoxy]-ethyl benzoate hydrochloride]
1 nM | COc1ccc(CO[C@H]2CNC[C@@H](O)[C@@H]2c2ccc(OCCCOCc3ccccc3)cc2)cc1 (racemic) [Z, (3RS,4SR,5SR)-4-[4-(3-benzyloxy-propoxy)-phenyl]-3-(4-methoxy-benzyloxy)-piperidin-5-ol]
